According to patent US20190359941A1, “SUBSTITUTED AZOLE DERIVATIVES FOR GENERATION, PROLIFERATION AND DIFFERENTIATION OF HEMATOPOIETIC STEM AND PROGENITOR CELLS” (NATIONAL UNIVERSITY OF SINGAPORE, priority 2016, published 2019):
“Also recorded” adds a separate entry of the source. Like-named read-outs stand apart in the source and are kept apart here.

Key:
[1] = test system: CD45+ leukocytes of UCB-MNC; conditions: 5.0 μM; 72 hours / day 3; frozen-thawed MNC (FIG. 7)
Procedure: SB203580, DMSO and cytokines alone in serum-free expansion media (SFEM) served as the reference compound, vehicle and blank control, respectively. Data represents mean±SEM for n=3.
Annexin-V-FITC (Beckman Coulter, Inc., USA), 7-AAD (Beckman Coulter, Inc., USA) and CD45-PE-Cy7 were used for CD45+ cell viability analysis.
All compounds were assessed for their ability to maintain the viability of CD45+ leukocytes using Annexin V and 7-AAD. Induction of apoptosis in the CD45+ cells during ex vivo cultures limits expansion of HSPC.

[2] = test system: total nucleated cells (TNC); conditions: for expansion of TNC reduced, compared to 5.0 μM: 11 days (FIG. 9A)
From the text: UCB was obtained through Singapore Cord Blood Bank (SCBB), from donated units failing to meet the criteria for clinical banking. Prior consent was obtained from the donating mothers and the Research Advisory Ethics Committee of the SCBB, along with the Institutional Review Boards of National University of Singapore (NUS), and Singapore General Hospital (SGH) approved the usage of the samples. Mononuclear cells (MNC) were isolated from the fresh UCB by density gradient centrifugation using Ficoll-Histopaque™ Premium (GE Healthcare, UK). Counted UCB-MNC was cryopreserved in 90% v/v autologous plasma with 10% v/v dimethyl-sulfoxide (DMSO) (Sigma Aldrich, USA) for subsequent usage. UCB-MNC was thawed using human serum albumin (25% v/v) (Health Sciences Authority, Singapore) and Dextran 40 (75% v/v) (Hospira, USA). […] For certain experiments, cell cultures were initiated with purified populations such as early (CD45+CD34+CD38−) or late (CD45+CD34+CD38+) progenitor cells at optimal plating concentration of 5.0×10^4 cells/ml or 2.0×10^6 cells/ml, respectively. Such pure populations were obtained by labeling the frozen-thawed, non-enriched UCB-MNC using fluorescence conjugated antibodies followed by fluorescence activated cell sorting (FACS). The substituted azole-based small molecules dissolved in DMSO were added to the cultures at an empirically determined optimal concentration of 5.0 μM. UCB-MNC cultures devoid of small molecules but supplemented with cytokines served as control, while cultures supplemented with cytokines and DMSO served as vehicle control.
Cell cultures for in vitro experiments were done in 6- or 24-well plates (BD Falcon, USA), while culturing for in vivo transplantation studies was carried out in T-175 flasks (Corning, USA). Cell cultures were maintained in a humidified, 5% carbon dioxide incubator at 37° C. for the required duration. For UCB expansion evaluation and animal experimentation, an established 10-11-day expansion protocol was used which included cytokine and small molecule replenishment on day 7. At completion of incubation, cells were aspirated from the culture-ware with subsequent rinsing by Dulbecco's phosphate buffered saline (DPBS) (Hyclone, USA). The extracted cells were counted using an automated differential hematology cell counter (COULTER® AcT™ diff Hematology Analyzer, Beckman Coulter Inc, USA) and re-suspended in DPBS for subsequent in vitro analysis or transplantation in mice.

[3] = test system: colony forming unit (CFU) - granulocyte, macrophage (GM); conditions: 5.0 μM; SFEM; 10 days (FIG. 9B)
Procedure: Colony-forming units (CFU) of granulocyte-monocyte (GM) from freshly thawed UCB-MNC or 11 days expanded cells of the mentioned cell cultures were evaluated. Duplicates of freshly thawed UCB-MNC (5,000 and 10,000 cells) and expanded cells (1,000 and 5,000 cells) were cultured in 35 mm petri dishes (BD Falcon, USA) in 1.1 mL of hematopoietic stem cell (HSC)-CFU complete media with erythropoietin (EPO) (Miltenyi Biotec, Germany) without any further media manipulation. After 14-16 days in culture in a humidified environment at 37° C. and 5% CO2, colonies were scored and pictured using a SZ61 Olympus microscope equipped with charge-coupled device (CCD) camera (Olympus Europa GmbH, Germany).

UCB-MNC expanded cells = conditions: 5.0 μM; ACF; 11 days (FIG. 13E)
Procedure: UCB-MNC samples were fixed with modified Carnoy's fixative (Leica Biosystems, Germany) and placed onto glass microscope slides, and then dehydrated through an ethanol (Sigma-Aldrich, USA) series (70%, 85% and 100%) for 2 minutes followed by air-drying.
FISH assays were carried out using a panel of probes (Abbott Molecular, USA) comprising LSI D7S486 SpectrumOrange™/CEP 7 SpectrumGreen™, CEP 8 SpectrumAqua™/LSI MYC SpectrumOrange™, LSI CDKN2A SpectrumOrange™/CEP 9 SpectrumGreen™, LSI ABL1 SpectrumOrange™/BCR SpectrumGreen™ dual fusion translocation probe, LSI MLL dual color break-apart probe, LSI ETV6 SpectrumGreen™/RUNX1 SpectrumOrange™ extra signal dual color translocation probe, and LSI TP53 SpectrumOrange™/CEP 17 SpectrumGreen™ probe set. The FISH probes were applied to the fixed cells and co-denatured at 75° C., followed by an overnight hybridization at 37° C. Washes were performed and the slide was counterstained with DAPI anti-fade solution (Vectashield, Vector Laboratories, USA) and analyzed using an epi-fluorescence microscope (Leica, Germany).
Signals from 100 non-overlapping nuclei were enumerated for loss of LSI D7S486, trisomy 8, loss of CDKN2A, translocation involving ABL1 and BCR, MLL break-apart, translocation involving ETV6 and RUNX1, and loss of TP53. […]

CD34+ cells = conditions: 5.0 μM; 11 days (FIG. 17H)
[4] = test system: HSC2 (CD45+CD34+CD38−CD45RA−CD90+CD49f+); assay: Ex vivo expansion of HSC2 from UCB-MNC; conditions: 5.0 μM; SFEM; over 10 days (FIG. 13C)
From the text: Mononuclear cells (MNC) were isolated from the fresh UCB by density gradient centrifugation using Ficoll-Histopaque™ Premium (GE Healthcare, UK). Counted UCB-MNC was cryopreserved in 90% v/v autologous plasma with 10% v/v dimethyl-sulfoxide (DMSO) (Sigma Aldrich, USA) for subsequent usage. UCB-MNC was thawed using human serum albumin (25% v/v) (Health Sciences Authority, Singapore) and Dextran 40 (75% v/v) (Hospira, USA). […] For certain experiments, cell cultures were initiated with purified populations such as early (CD45+CD34+CD38−) or late (CD45+CD34+CD38+) progenitor cells at optimal plating concentration of 5.0×10^4 cells/ml or 2.0×10^6 cells/ml, respectively. Such pure populations were obtained by labeling the frozen-thawed, non-enriched UCB-MNC using fluorescence conjugated antibodies followed by fluorescence activated cell sorting (FACS). The substituted azole-based small molecules dissolved in DMSO were added to the cultures at an empirically determined optimal concentration of 5.0 μM. […]
Cell cultures were maintained in a humidified, 5% carbon dioxide incubator at 37° C. for the required duration. […] The extracted cells were counted using an automated differential hematology cell counter (COULTER® AcT™ diff Hematology Analyzer, Beckman Coulter Inc, USA) and re-suspended in DPBS for subsequent in vitro analysis or transplantation in mice. […]

[5] = test system: hematopoietic progenitor cells (HPC: CD45+CD34+CD38−CD45RA−); assay: Ex vivo expansion of hematopoietic progenitor cells from non-enriched UCB mononuclear cells; conditions: for enhancement of HPC expansion compared to cytokine control: 11 days (FIG. 9A); for relative effectiveness in inducing ex vivo expansion of HPC/HSPC (in words): among all the compounds screened
CD34 cells = conditions: cited from earlier work
[6] = IM-29 mediated expansion of UCB
[7] = 5.0 μM, SFEM, 10 days (FIG. 8C)

Fc1ccc(-c2nc(-c3ccc4ccccc4c3F)[nH]c2-c2ccncc2)cc1 [IM-29, 4-[2-(1-fluoronaphthalen-2-yl)-4(5)-(4-fluorophenyl)-1H-imidazol-5(4)-yl]pyridine]
acute toxicity to UCB cells (CD45+ viability) [1]: minimal toxicity | expansion of TNC reduced, compared to 5.0 μM ([2]; 1.0 μM IM-29, ACF): 0.83 fold | increase of total nucleated cells (TNC) compared to starting cell number ([2]; 5.0 μM, ACF, by day 11 (FIG. 11)): about 6 fold | expansion of TNC reduced, compared to 5.0 μM ([2]; 10 μM IM-29, ACF): 0.70 fold | increase of total nucleated cells (summary) [2, 6]: at least 5 fold | expansion of colony forming units (CFU) compared to non-cultured cells [3]: at least 100 fold | FISH results with probes relating to hematological malignancies (UCB-MNC expanded cells): normal results | CD34+ cell expansion, fold higher compared to cytokine control cultures (CD34+ cells): approximately 1.9 fold | HSC2 expansion enhancement compared to cytokine-only control [4]: at least 7.5 fold | enhancement of HPC expansion compared to cytokine control ([5]; 1.0 μM, ACF): 2.7 fold | enhancement effect for HPC expansion compared to cytokine control ([5]; 5.0 μM, 10 days (FIG. 8A)): 8 fold | boost of HPC expansion on increasing culturing period from 7 days to 9 days ([5]; 5.0 μM, ACF (FIG. 11)): at least 5 fold | expansion of HPC, IM-29 added at both day 0 and day 7 (Group 1) ([5]; 5.0 μM, ACF, 10 days (FIG. 12)): ≥ 450 fold | enhancement of HPC expansion compared to cytokine control ([5]; 5.0 μM, ACF): 3.6 fold | HPC-associated expression of CD45+CD34+CD38−CD45RA− [5, 7]: about 68% | HPC-associated expression, fold higher than cytokine control [5, 7]: 3 fold | expansion of HPC, IM-29 added at both day 0 and day 7 (Group 1) ([5]; 5.0 μM, SFEM, 10 days (FIG. 12)): at least 750 fold | enhancement of HPC expansion compared to cytokine control ([5]; 10.0 μM, ACF): 2.4 fold | HPC expansion reduced compared to Group 1 when IM-29 not replenished on day 7 (Group 2) ([5]; IM-29 at day 0 only, 10 days (FIG. 12)): at least 0.7 fold | expansion of HPC (summary) [5, 6]: at least 1,000 fold | HPC expansion with IM-29 and a single cytokine ([5]; S+IM, T+IM, F+IM or IG+IM (data not shown)): minimal expansion | HPC expansion, fold higher than the four cytokines culture ([5]; S+T+F+IG+IM-29 vs four cytokines, ACF, 11 days (FIG. 1)): at least 4.7 fold | HPC expansion ([5]; S+T+F+IM-29 5.0 μM, ACF, 11 days (FIG. 1)): 1265.2±39.1 fold | HPC expansion enhancement effect vs S+T+F ([5]; S+T+F+IM-29 vs S+T+F, ACF, 11 days (FIG. 1)): 2.6 fold | HPC expansion ([5]; SCF+TPO+FLT-3L+IGFBP-2+IM-29 5.0 μM, ACF, 11 days (FIG. 1)): 1513.9±6.4 fold | relative effectiveness in inducing ex vivo expansion of HPC/HSPC (in words) ([5]; 5.0 μM): most effective of those tested; also recorded: most effective compound | augmentation of HPC expansion when IM-29 is added to basal cocktail ([5]; basal cocktail S+IG+T, ACF, 11 days (FIG. 1)): two-fold | HPC expansion of Group 1, fold higher than cytokine control Group 3 ([5]; irrespective of basal culture media, 10 days (FIG. 12)): at least 12 fold | effect on expanding HSPC, IM-29 added only at day 7 (Group 4) ([5]; not added at start of culture, 10 days (FIG. 12)): negligible effect | HPC expansion with IM-29 alone ([5]; without any cytokines (data not shown)): did not support the expansion of HPC

Cc1cccc(-c2nc(-c3ccc4ccccc4c3F)[nH]c2-c2ccncc2)c1 [IM-04, 4-[2-(1-fluoronaphthalen-2-yl)-4-(m-tolyl)-1H-imidazol-5-yl]pyridine]
relative effectiveness in inducing ex vivo expansion of HPC/HSPC (in words) ([5]; 5.0 μM): second most effective compound

NC(=O)c1cccnc1 [NAM, nicotinamide]
increase of CD34 cells (CD34 cells; over 21 days, Horwitz et al. 2014): 72 fold

CC(C)n1cnc2c(NCCc3ccc(O)cc3)nc(-c3csc4ccccc34)nc21 [SR-1, stemregenin-1]
median CD34 expansion (CD34 cells; cultures lasting up to 15 days, Wagner et al. 2016): 330 fold

Cc1cccc(-c2oc(-c3ccc4ccccc4c3F)nc2-c2ccncc2)c1 [OZ-07, 2-(1-fluoronaphthalen-2-yl)-4-(pyridin-4-yl)-5-(m-tolyl)oxazole]
relative effectiveness in inducing ex vivo expansion of HPC/HSPC (in words) ([5]; 5.0 μM): not optimally active

Fc1ccc(-c2nc(-c3ccc4ccccc4c3)[nH]c2-c2ccncc2)cc1 [ZQX-33, 4-[2-(naphthalen-2-yl)-4(5)-(4-fluorophenyl)-1H-imidazol-5(4)-yl]pyridine]
HPC expansion capacity reduced relative to IM-29 ([5]; naphthalen-2-yl instead of 1-fluoronaphthalen-2-yl at C2, P<0.001): at least 2 fold
